Test results from ChEMBL document CHEMBL5154732, “Discovery of indol-6-yl-pyrrolo[2,3-c]pyridin-7-one derivatives as bromodomain-containing protein 4 (BRD4) inhibitors for the treatment of kidney fibrosis” (Eur J Med Chem, 2022).
Values belong to the compound of their own block, whether it stands above or below them.

Experiments:
[1] = Clearance in ICR mouse at 2 mg/kg, iv measured at 0.083 to 24 hrs by LC-MS/MS analysis; type: ADME, organism-based; conditions: in vivo, time 0.083-24 hrs
[2] = molecular target: T1, Bromodomain-containing protein 1 (Homo sapiens, UniProt O95696); test: Inhibition of His-tagged recombinant BRD1 (unknown origin) (11 to 190 residues) using SGRGK(Ac)GGK(Ac)GLGK(Ac)GGAK(Ac)RHRK(Biotin)-OH as substrate measured after 1 hr by HTRF assay
T1 sequence (O95696 whole entry): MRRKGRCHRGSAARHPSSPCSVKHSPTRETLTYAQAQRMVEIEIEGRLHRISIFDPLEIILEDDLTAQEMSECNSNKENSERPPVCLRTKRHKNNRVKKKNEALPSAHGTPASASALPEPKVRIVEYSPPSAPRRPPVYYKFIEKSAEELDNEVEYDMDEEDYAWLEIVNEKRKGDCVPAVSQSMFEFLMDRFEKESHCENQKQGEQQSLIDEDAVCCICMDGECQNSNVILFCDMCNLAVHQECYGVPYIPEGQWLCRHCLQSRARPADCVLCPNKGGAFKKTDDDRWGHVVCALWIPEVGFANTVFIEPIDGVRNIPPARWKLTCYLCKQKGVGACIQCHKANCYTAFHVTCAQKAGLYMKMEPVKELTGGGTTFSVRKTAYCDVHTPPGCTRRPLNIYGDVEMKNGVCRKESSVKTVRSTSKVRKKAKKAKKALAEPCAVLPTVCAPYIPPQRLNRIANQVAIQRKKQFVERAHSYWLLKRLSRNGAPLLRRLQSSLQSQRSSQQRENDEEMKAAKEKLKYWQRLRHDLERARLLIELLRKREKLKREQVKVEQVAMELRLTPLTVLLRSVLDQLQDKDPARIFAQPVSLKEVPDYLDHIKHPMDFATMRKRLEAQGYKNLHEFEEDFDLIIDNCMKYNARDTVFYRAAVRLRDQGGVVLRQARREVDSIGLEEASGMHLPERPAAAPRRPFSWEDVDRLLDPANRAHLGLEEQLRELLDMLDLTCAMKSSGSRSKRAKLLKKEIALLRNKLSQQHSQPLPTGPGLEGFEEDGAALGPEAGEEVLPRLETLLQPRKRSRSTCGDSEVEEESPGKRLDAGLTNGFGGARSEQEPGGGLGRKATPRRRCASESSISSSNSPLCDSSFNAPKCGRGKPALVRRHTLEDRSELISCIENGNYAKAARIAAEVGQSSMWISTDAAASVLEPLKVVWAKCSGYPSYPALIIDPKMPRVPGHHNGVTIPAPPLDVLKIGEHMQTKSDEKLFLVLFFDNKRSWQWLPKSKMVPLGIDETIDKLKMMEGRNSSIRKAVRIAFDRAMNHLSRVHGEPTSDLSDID

[3] = Toxicity in mouse assessed as effect on aspartate aminotransferase level in serum at 30 mg/kg/day; type: organism-based; conditions: in vivo
[4] = molecular target: Bromodomain-containing protein 3 (Homo sapiens, UniProt Q15059); test: Inhibition of His-tagged recombinant BRD3 (unknown origin) (11 to 166 residues) using SGRGK(Ac)GGK(Ac)GLGK(Ac)GGAK(Ac)RHRK(Biotin)-OH as substrate measured after 1 hr by HTRF assay
[5] = Toxicity in mouse assessed as effect on alanine aminotransferase level in serum at 30 mg/kg/day; type: organism-based; conditions: in vivo
[6] = molecular target: Bromodomain testis-specific protein (Homo sapiens, UniProt Q58F21); test: Inhibition of His-tagged recombinant BRDT (unknown origin) (21 to 153 residues) using SGRGK(Ac)GGK(Ac)GLGK(Ac)GGAK(Ac)RHRK(Biotin)-OH as substrate measured after 1 hr by HTRF assay
[7] = molecular target: Bromodomain-containing protein 2 (Homo sapiens, UniProt P25440); test: Inhibition of His-tagged recombinant BRD2 (unknown origin) (11 to 162 residues) using SGRGK(Ac)GGK(Ac)GLGK(Ac)GGAK(Ac)RHRK(Biotin)-OH as substrate measured after 1 hr by HTRF assay
[8] = Cmax in ICR mouse at 30 mg/kg, po measured at 0.083 to 24 hrs by LC-MS/MS analysis; type: ADME, organism-based; parameters: time 0.083-24 hrs, dose 30 mg/kg, route po; conditions: in vivo
[9] = Oral bioavailability in ICR mouse at 30 mg/kg measured at 0.083 to 24 hrs by LC-MS/MS analysis; type: ADME, organism-based; conditions: in vivo, time 0.083-24 hrs
[10] = Toxicity in mouse assessed as effect on serum creatinine level at 30 mg/kg/day; type: organism-based; conditions: in vivo
[11] = AUC (0 to infinity) in ICR mouse at 30 mg/kg, po measured at 0.083 to 24 hrs by LC-MS/MS analysis; type: ADME, organism-based; parameters: time lower 0.083 hrs, dose 30 mg/kg, time upper 24 hrs, route po; conditions: in vivo
[12] = Tmax in ICR mouse at 30 mg/kg, po measured at 0.083 to 24 hrs by LC-MS/MS analysis; type: ADME, organism-based; conditions: in vivo, time 0.083-24 hrs
[13] = Toxicity in mouse assessed as pathological changes in lung at 30 mg/kg/day by H and E staining method; type: organism-based; conditions: in vivo
[14] = Toxicity in mouse assessed as pathological changes in heart at 30 mg/kg/day by H and E staining method; type: organism-based; conditions: in vivo
[15] = Toxicity in mouse assessed as pathological changes in liver at 30 mg/kg/day by H and E staining method; type: organism-based; conditions: in vivo
[16] = molecular target: Bromodomain-containing protein 4 (Homo sapiens, UniProt O60885); test: Inhibition of His-tagged […] recombinant BRD4 (unknown origin) (21 to 153 residues) using SGRGK(Ac)GGK(Ac)GLGK(Ac)GGAK(Ac)RHRK(Biotin)-OH as substrate measured after 1 hr by HTRF assay
[17] = AUC (0 to t) in ICR mouse at 30 mg/kg, po measured at 0.083 to 24 hrs by LC-MS/MS analysis; type: ADME, organism-based; parameters: time lower 0.083 hrs, dose 30 mg/kg, time upper 24 hrs, route po; conditions: in vivo
[18] = molecular target: T2, Bromodomain and PHD finger-containing protein 3 (Homo sapiens, UniProt Q9ULD4); test: Inhibition of His-tagged recombinant BRPF3 (unknown origin) (11 to 188 residues) using SGRGK(Ac)GGK(Ac)GLGK(Ac)GGAK(Ac)RHRK(Biotin)-OH as substrate measured after 1 hr by HTRF assay
T2 sequence (Q9ULD4 whole entry): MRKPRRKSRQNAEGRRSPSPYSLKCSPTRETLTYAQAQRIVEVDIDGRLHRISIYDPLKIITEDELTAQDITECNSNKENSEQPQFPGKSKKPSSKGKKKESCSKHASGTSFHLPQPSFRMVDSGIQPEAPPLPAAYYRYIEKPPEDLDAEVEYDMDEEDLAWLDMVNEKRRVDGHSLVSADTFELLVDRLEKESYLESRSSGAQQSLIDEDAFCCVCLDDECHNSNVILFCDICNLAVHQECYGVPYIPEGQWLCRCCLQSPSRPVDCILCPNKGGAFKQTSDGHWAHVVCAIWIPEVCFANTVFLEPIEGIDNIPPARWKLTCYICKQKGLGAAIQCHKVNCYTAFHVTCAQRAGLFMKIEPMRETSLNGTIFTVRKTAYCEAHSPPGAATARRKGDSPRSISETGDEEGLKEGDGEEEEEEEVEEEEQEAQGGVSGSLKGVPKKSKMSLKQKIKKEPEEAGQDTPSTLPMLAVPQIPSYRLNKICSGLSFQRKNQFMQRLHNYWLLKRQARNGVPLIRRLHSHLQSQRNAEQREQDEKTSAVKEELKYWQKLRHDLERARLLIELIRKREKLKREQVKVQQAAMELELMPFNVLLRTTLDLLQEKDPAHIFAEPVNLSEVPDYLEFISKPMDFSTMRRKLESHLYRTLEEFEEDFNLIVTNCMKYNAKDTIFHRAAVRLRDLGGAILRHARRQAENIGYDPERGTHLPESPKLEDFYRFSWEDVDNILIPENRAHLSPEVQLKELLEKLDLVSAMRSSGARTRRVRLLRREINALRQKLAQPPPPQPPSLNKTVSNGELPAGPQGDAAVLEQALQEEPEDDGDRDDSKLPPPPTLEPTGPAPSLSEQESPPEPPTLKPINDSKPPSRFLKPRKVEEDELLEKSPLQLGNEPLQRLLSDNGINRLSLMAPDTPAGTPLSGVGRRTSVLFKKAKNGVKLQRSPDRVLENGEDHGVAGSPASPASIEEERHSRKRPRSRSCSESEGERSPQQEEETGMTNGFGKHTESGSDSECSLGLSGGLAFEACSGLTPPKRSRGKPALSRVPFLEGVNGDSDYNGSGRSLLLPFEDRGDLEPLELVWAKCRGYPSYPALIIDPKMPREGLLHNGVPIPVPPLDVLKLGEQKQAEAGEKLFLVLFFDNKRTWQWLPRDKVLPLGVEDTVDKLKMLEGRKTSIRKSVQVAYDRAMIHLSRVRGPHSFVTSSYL

[19] = Volume of distribution at steady state in ICR mouse at 2 mg/kg, iv measured at 0.083 to 24 hrs by LC-MS/MS analysis; type: ADME, organism-based; conditions: in vivo, time 0.083-24 hrs, read-out: Vdss
[20] = Toxicity in mouse assessed as pathological changes in spleen at 30 mg/kg/day by H and E staining method; type: organism-based; conditions: in vivo
[21] = Half life in ICR mouse at 30 mg/kg, po measured at 0.083 to 24 hrs by LC-MS/MS analysis; type: ADME, organism-based; conditions: in vivo, time 0.083-24 hrs
[22] = Toxicity in mouse assessed as effect on serum urea level at 30 mg/kg/day; type: organism-based; conditions: in vivo

Sequence of Bromodomain-containing protein 3 (Q15059 whole entry, the tested form may be a part): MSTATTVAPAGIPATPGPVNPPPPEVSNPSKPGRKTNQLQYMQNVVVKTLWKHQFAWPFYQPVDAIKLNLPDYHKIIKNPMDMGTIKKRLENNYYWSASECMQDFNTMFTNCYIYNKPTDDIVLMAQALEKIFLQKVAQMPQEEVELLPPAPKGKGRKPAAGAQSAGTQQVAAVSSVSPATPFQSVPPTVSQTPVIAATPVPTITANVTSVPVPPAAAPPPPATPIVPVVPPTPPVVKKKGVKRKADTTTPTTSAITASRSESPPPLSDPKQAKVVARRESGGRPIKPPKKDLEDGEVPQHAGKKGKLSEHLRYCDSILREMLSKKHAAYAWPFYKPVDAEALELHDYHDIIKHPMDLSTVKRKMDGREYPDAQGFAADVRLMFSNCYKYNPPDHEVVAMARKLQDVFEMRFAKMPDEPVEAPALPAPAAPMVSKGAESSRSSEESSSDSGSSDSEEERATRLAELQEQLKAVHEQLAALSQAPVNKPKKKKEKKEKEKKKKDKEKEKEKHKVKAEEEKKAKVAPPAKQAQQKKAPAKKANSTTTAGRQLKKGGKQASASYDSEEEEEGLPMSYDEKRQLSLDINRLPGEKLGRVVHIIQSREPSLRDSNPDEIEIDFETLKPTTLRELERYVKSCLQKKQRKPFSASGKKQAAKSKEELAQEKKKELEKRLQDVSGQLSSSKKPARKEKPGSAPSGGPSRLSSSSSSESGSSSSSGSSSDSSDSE
Sequence of Bromodomain-containing protein 2 (P25440 whole entry, the tested form may be a part): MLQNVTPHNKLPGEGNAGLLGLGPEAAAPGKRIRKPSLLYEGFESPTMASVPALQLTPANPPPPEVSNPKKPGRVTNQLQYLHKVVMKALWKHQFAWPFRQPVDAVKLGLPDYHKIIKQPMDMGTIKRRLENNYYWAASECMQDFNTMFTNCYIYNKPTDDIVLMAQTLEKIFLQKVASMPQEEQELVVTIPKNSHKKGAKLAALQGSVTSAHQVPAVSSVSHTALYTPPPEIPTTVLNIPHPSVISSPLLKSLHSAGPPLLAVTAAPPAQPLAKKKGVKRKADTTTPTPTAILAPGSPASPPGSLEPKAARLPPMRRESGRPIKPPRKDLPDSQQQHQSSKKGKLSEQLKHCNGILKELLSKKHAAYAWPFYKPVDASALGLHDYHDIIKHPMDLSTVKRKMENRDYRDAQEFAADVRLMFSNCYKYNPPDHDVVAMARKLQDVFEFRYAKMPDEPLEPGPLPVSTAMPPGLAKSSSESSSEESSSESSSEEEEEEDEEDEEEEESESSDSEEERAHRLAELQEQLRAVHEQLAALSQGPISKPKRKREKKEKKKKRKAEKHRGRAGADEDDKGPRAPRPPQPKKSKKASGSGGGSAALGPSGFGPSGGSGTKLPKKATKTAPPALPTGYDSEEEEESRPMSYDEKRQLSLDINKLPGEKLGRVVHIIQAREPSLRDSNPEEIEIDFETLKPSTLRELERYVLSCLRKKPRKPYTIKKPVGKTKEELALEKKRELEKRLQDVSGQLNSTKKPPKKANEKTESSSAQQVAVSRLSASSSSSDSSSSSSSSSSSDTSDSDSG

IC50 [16]: 504 nM
SMILES: CC(c1ccccc1)n1ccc2ccc(-c3cn(C)c(=O)c4[nH]ccc34)cc21 (configuration not stated)

IC50 [16]: 471 nM
SMILES: O=C1NC=C(c2ccc3ccn(Cc4ccccc4)c3c2)C2C=CNC12 (configuration not stated)

IC50 [16]: > 3000 nM
SMILES: Cc1noc(C)c1-c1ccc2ccn(C3CCCC3)c2c1

IC50 [16]: 578 nM
SMILES: CCCC(C)n1ccc2ccc(C3=CNC(=O)C4NC=CC34)cc21 (configuration not stated)

IC50 [16]: 2650 nM
SMILES: Cc1noc(C)c1-c1ccc2ccn(Cc3ccccc3)c2c1

IC50 [16]: 559 nM
SMILES: COc1cc(Cn2ccc3ccc(C4=CNC(=O)C5NC=CC45)cc32)cc(OC)c1 (configuration not stated)

Continued, compound first:

SMILES: Cn1cc(-c2ccc3ccn(Cc4ccccn4)c3c2)c2cc[nH]c2c1=O
clearance [1]: 125 mL/min/kg
IC50 [2]: > 1000 nM
Activity [3]: Non-Toxic
IC50 [4]: 502 nM
Activity [5]: Non-Toxic
IC50 [6]: > 1000 nM
IC50 [7]: 718 nM
Cmax [8]: 390 ng/mL
bioavailability [9]: 7.91%
Activity [10]: Non-Toxic
AUC(0-inf) [11]: 323 ng·h/mL
Tmax [12]: 11.4 min
Activity [13]: Non-Toxic
Activity [14]: Non-Toxic
Activity [15]: Non-Toxic
IC50 [16]: 107 nM
AUC(0-t) [17]: 319 ng·h/mL
IC50 [18]: > 1000 nM
Vd [19]: 2.08 L/kg
Activity [20]: Non-Toxic
half-life [21]: 80.4 min
Activity [22]: Non-Toxic

SMILES: Cc1noc(C)c1-c1ccc2ccn(Cc3ccc(F)cc3)c2c1
IC50 [16]: > 3000 nM

SMILES: O=C1NC=C(c2ccc3ccn(Cc4cc(F)cc(F)c4)c3c2)C2C=CNC12 (configuration not stated)
IC50 [16]: 347 nM

SMILES: Cc1noc(C)c1-c1ccc2ccn(C(C)c3ccccc3)c2c1 (configuration not stated)
IC50 [16]: > 3000 nM

SMILES: Cc1cn(Cc2cc(F)cc(F)c2)c2cc(C3=CN(C)C(=O)C4NC=CC34)ccc12 (configuration not stated)
IC50 [16]: 419 nM
